Results: patent EP4556003A1, “ANTI-OBESITY AND ANTI-DIABETIC ACTIVITY OF BROMINATED DITERPENES FROM RED ALGAE OF THE GENUS LAURENCIA AND APPLICATIONS THEREOF” (priority 2023, dated 2025)

Legend:
[1] = reference [12]; cited from earlier work
[2] = High fat diet-induced obesity mouse model (weight gain, abdominal fat, spleen weight, overall toxicity); assay type: in vivo; conditions: high fat diet mice
Protocol: (§1) All procedures were conducted in compliance with protocols approved by the Animal Care Committee of the University of Crete, School of Medicine (Facility number EL91-BIOexp-06), in conjunction with the Veterinary Department of the Region of Crete, Heraklion, Crete, Greece. C57BL/6 adult male mice were maintained in a 12 h day/night cycle and 21-23 °C conditions. Mice were provided with water and either normal fat diet, or high fat diet (60% energy from fat) ad libitum. All mice were weighed every 48 h.
(§2) Neorogioldiol was first dissolved in 90% carbowaxTM 400, 10% (v/v) absolute ethanol solution and then diluted 1:10 in water for injection. A dose of 0.25 mg neorogioldiol in a total volume of 200 µl was administered intraperitoneally every 48 h in mice in high fat + neorogioldiol group starting from day 1. 4-5 mice were used per group and each experiment was performed twice.
Abdominal fat lobes were weighed, washed in PBS, minced and dissolved with collagenase. They were incubated in 1.5mg/ml collagenase in 1% PBS-BSA, for 30 min at 37 °C. Next, homogenate was centrifuged at 800 rpm for 5 min at room temperature. The upper fatty phase, which contains the adipocytes, was collected and resuspended in TRI Reagent® and RNA isolation was carried out according to the manufacturer's instructions. The cell pellet, which is the stromal vascular fraction, was washed once with PBS and resuspended in TRI Reagent® for RNA isolation.

3T3-L1 cells [3] = test: Quantitative PCR of relative mRNA expression in cell culture samples; assay type: cell-based, Mouse; conditions: for Gapdh expression / Hk2 expression / Pfkfb3 expression: 62.5 µM for 24 h
Protocol: Mouse 3T3-L1 preadipocytes were maintained in proliferation medium containing DMEM supplemented with 10% (v/v) heat inactivated NBCS and 1% (v/v) penicillin-streptomycin at 37 °C with 5% CO2, humidified atmosphere. Cells were seeded in T-75 flasks at a density of 25×10^4 cells/flask. Cultures never became completely confluent according to the manufacturer's instructions. They were passaged using trypsin-EDTA solution once they reached 70-80% confluency. For differentiation, 3T3-L1 cells were seeded and after 24 h (day 1), cell differentiation was induced by changing the medium to high glucose DMEM containing 10% (v/v) heat inactivated FBS, 1% penicillin-streptomycin, 10 µg/mL insulin, 0.25 µM Dexamethasone (GAP), 0.5 mM IBMX (=differentiation medium I). On day 3, the medium was changed to high glucose DMEM containing 10% FBS, 1% penicillin- streptomycin, and 10 µg/mL insulin (=differentiation medium II). Thereafter, medium was changed every other day switching between differentiation medium I and differentiation medium II until day 12 or 23, when adipocytes were harvested. Control group preadipocytes were seeded at a higher density and harvested after two days. Test compounds were administered either at the initiation of differentiation, or after 15 days of differentiation and with every medium change. To determine the effect on preadipocyte differentiation, cells were seeded and after 24 h they were treated with neorogioldiol. Neorogioldiol was maintained in the culture medium throughout cell differentiation period. To determine the effect of neorogioldiol on mature adipocytes, cells were seeded and induced to differentiate for 14 days, then on day 15 neorogioldiol was added to the differentiation medium for 24 h before cells were harvested. Each compound used was diluted in a 90% carbowax™ 400, 10% (v/v) absolute ethanol solution serving as a control solvent. The final concentration in culture was 0.09% (v/v) carbowax and 0.01% (v/v) ethanol. Compounds were used at the following concentrations: neorogioldiol (1) 62.5µM and neorogioltriol (2) 25µM.
Adipocytes and preadipocytes were harvested using the TRI Reagent®. RNA isolation was carried out according to the manufacturer's instructions. The purified RNA was quantified using the Nanodrop micro-volume spectrophotometer and 500 ng of each sample were used as a template for reverse transcription. cDNA synthesis was performed using the PrimeScriptTM RT reagent Kit (TaKaRa, RR037A) according to manufacturer's instructions. The cDNA produced by the above described procedure was diluted and used as a template for two-step quantitative PCR in a StepOnePlus™ Real-Time PCR System (Applied Biosystems™, 4376600) for a maximum of 40 cycles, as follows: start step 95 °C for 3 min, repeat steps: 95 °C for 15 s and 60 °C for 30 s. Amplification was performed using KAPA SYBR® FAST Universal qPCR kit (Kapa Biosystems, KK4618) according to manufacturer's instructions. Relative quantitative analysis was accomplished calculating fold-changes of gene expression as 2-(ΔΔCt), where ΔCt is (Ct (gene of interest) - Ct (housekeeping gene)). Ppib was used as internal control gene in 3T3L1 cells and in the fat fraction of mice abdominal fat, Rps9 was used as internal control gene in the stromal vascular fraction of mice abdominal fat and Actb was used as internal control gene in liver samples. Table 1. List of primers used for quantitative real-time PCR analysis.

3T3-L1 cells [4] = test: MTT cell viability / proliferation assay; assay type: cell-based, Mouse
Protocol: The cell viability was evaluated using the MTT assay. 3T3-L1 cells were seeded at a density of 1×10^3 in 96-well plates and incubated for 24h. Compounds 1 and 2 were added in the wells at various concentrations and then incubated at 37 °C. Cells were treated with compound 1 at concentrations of 62.5, 46.875, 31.25, 15.625, 7.81 and 3.9 µM. Cells were treated with compound 2 at concentrations of 62.5, 25.0, 12.5, 6.25 and 3.125 µM. After 24, 48, and 72 h of treatment, MTT solution was added in the wells at a final concentration of 0.5 mg/mL and incubated for 4 h. Cell culture media with MTT was removed and the formazan crystals were dissolved in 100 µl/well isopropanol/HCl (0.4%) and the absorbance was measured at 600 nm using the Infinite® 200 PRO microplate plate reader (Tecan, Zurich, Switzerland).

[5] = Glucose tolerance test in high fat diet-fed mice; assay type: in vivo, C57BL/6 adult male mice
Protocol: as §1, §2
Mice were fasted for 16 h before receiving an intraperitoneal injection of 35% dextrose (100 µl / 35 gr). Blood glucose concentrations were measured in blood collected by venous bleeding from the tail vein immediately before the injections and after 30, 60 and 120 min.

3T3-L1 cells [6] = test: Quantitative PCR of relative mRNA expression in cell culture samples; assay type: cell-based, Mouse; conditions: mature adipocytes: differentiated 15 days, then 62.5 µM for 8 more days
[7] = intraperitoneal 0.25 mg/mouse every 48 h for 35 days, vs high fat diet without neorogioldiol
[8] = cells differentiated in the presence of compound, 12 days, 1 at 62.5 µM, 2 at 25 µM
[9] = differentiation in presence of serial concentrations 62.5, 31.25, 15.625, 7.81 and 3.9 µM, dose-dependent
[10] = mature adipocytes: differentiated 15 days, then 62.5 µM for 8 more days

## neorogioldiol
[1]
  anti-inflammatory activity: potent anti-inflammatory activity
[2]; 0.25 mg/mouse i.p. every 48 h for 35 days
  toxicity in vivo (overall): did not exhibit any toxicity in vivo
[2]; [7]
  abdominal fat mass: reduced abdominal fat mass
  weight gain: suppressed weight gain
3T3-L1 cells [3]; adipocytes
  Gapdh expression: decreasing
  Hk2 expression: decreasing
  Pfkfb3 expression: decreasing
3T3-L1 cells [3]; [8]
  Adipoq expression levels: restricted the increase
  Dlkl mRNA expression: diminished
  Lep expression levels: restricted the increase
  Slc2a4 expression levels: restricted the increase
3T3-L1 cells [3]; [9]
  Lep levels: restricted the increase
  Slc2a4 levels: restricted the increase
3T3-L1 cells [3]; [10]
  Adipoq expression: decreased the expression
  Fabp4 expression: decreased the expression
  Pparg expression: decreased the expression
3T3-L1 cells [3]; preadipocytes
  Gapdh expression: downregulated
  Hk2 expression: downregulated
  Pfkfb3 expression: downregulated
3T3-L1 cells [4]; concentration chosen for further analyses
  concentrations that did not exhibit cytotoxicity: 62.5 µM
3T3-L1 cells [4]; three-day incubation (24, 48, 72 h), compound 1: after the first 24 h of treatment
  concentration with cytostatic effects: 62.5 µM
[5]; day 16, 0.25 mg/mouse i.p. every 48 h
  glucose intolerance (glucose tolerance test): had not developed glucose intolerance
[5]; day 34, 0.25 mg/mouse i.p. every 48 h
  glucose intolerance (glucose tolerance test): became glucose intolerant
3T3-L1 cells [6]
  Dlkl expression: did not affect the expression
  Lep expression: decreased the expression
  Slc2a4 expression: decreased the expression
